# Measurements published in ChEMBL document CHEMBL1201862, “PubChem BioAssay data set” (2004).
#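 Briefly, cells in 96-well plates were exposed to five compound concentrations for 48 h, and endpoints were estimated by linear interpolation. At the GI50, growth is halved.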 The source made the active and inactive calls. Rule as the data show it: active = GI50 up to about 1.1 µM and inactive = higher.
# What was measured:
# Assay in all cases: NCI tumour cell line growth inhibition, 48 h
# RXF 393 = system: RXF 393
# NCI/ADR-RES = system: NCI/ADR-RES
# T47D = system: T47D
# HOP-62 = system: HOP-62
# KM12 = system: KM12
# SNB-19 = system: SNB-19
# DU-145 = system: DU-145
# COLO 205 = system: COLO 205
# NCI-H522 = system: NCI-H522
# SF-295 = system: SF-295
# MOLT-4 = system: MOLT-4
# MCF7 = system: MCF7
# OVCAR-4 = system: OVCAR-4
# SN12C = system: SN12C
# SK-MEL-28 = system: SK-MEL-28
# M14 = system: M14
# U-251 = system: U-251
# HOP-92 = system: HOP-92
Compound,GI50 (RXF 393),GI50 (NCI/ADR-RES),GI50 (T47D),GI50 (HOP-62),GI50 (KM12),GI50 (SNB-19),GI50 (DU-145),GI50 (COLO 205),GI50 (NCI-H522),GI50 (SF-295),GI50 (MOLT-4),GI50 (MCF7),GI50 (OVCAR-4),GI50 (SN12C),GI50 (SK-MEL-28),GI50 (M14),GI50 (U-251),GI50 (HOP-92)
N#CC(c1ccccc1)(c1ccccc1)[C@@H](c1ccccc1)[C@H](Cc1ccccc1)NS(=O)(=O)c1ccccc1,84.7 µM (inactive),> 100 µM (inactive),> 100 µM (inactive),> 100 µM (inactive),> 100 µM (inactive),> 100 µM (inactive),> 100 µM (inactive),> 100 µM (inactive),> 100 µM (inactive),> 100 µM (inactive),15.7 µM (inactive),> 100 µM (inactive),> 100 µM (inactive),> 100 µM (inactive),> 100 µM (inactive),> 100 µM (inactive),> 100 µM (inactive),
O=C(NNS(=O)(=O)c1ccc(Br)cc1)c1ccc(Cl)cc1NC(=O)C12CC3CC(CC(C3)C1)C2,15.7 µM (inactive),14.3 µM (inactive),15.2 µM (inactive),19.8 µM (inactive),16.4 µM (inactive),15.4 µM (inactive),14.5 µM (inactive),12 µM (inactive),12.4 µM (inactive),13.9 µM (inactive),6.62 µM (inactive),11.7 µM (inactive),10.6 µM (inactive),18.9 µM (inactive),,15 µM (inactive),10.8 µM (inactive),12.2 µM (inactive)
O=C(CC(C(=O)O)N1CCOCC1)c1ccccc1 (stereo not given),18.4 µM (inactive),> 100 µM (inactive),> 100 µM (inactive),27.4 µM (inactive),,21 µM (inactive),23.6 µM (inactive),21.1 µM (inactive),> 100 µM (inactive),41.2 µM (inactive),15.2 µM (inactive),15.7 µM (inactive),23 µM (inactive),17.8 µM (inactive),19.5 µM (inactive),14.6 µM (inactive),16.7 µM (inactive),20.4 µM (inactive)
CCOC(=O)/C(C(=O)c1ccc[nH]1)=C1/CCCN1C,> 100 µM (inactive),> 100 µM (inactive),> 100 µM (inactive),> 100 µM (inactive),> 100 µM (inactive),> 100 µM (inactive),> 100 µM (inactive),> 100 µM (inactive),,> 100 µM (inactive),49.5 µM (inactive),> 100 µM (inactive),> 100 µM (inactive),> 100 µM (inactive),> 100 µM (inactive),> 100 µM (inactive),> 100 µM (inactive),
O=[N+]([O-])c1cc2c([N+](=O)[O-])cccc2o1,5.51 µM (inactive),14.3 µM (inactive),6.7 µM (inactive),18.5 µM (inactive),15.2 µM (inactive),19.2 µM (inactive),14.7 µM (inactive),4.57 µM (inactive),0.479 µM (active),22.9 µM (inactive),,3.5 µM (inactive),1.58 µM (inactive),12.1 µM (inactive),3.15 µM (inactive),10.2 µM (inactive),18.4 µM (inactive),17.4 µM (inactive)
Cc1ccsc1/C=N/Nc1cc(C)c2ccccc2n1,20.7 µM (inactive),13.9 µM (inactive),17.8 µM (inactive),22.3 µM (inactive),15.6 µM (inactive),16.6 µM (inactive),12.6 µM (inactive),5.92 µM (inactive),,3.04 µM (inactive),9.23 µM (inactive),15.6 µM (inactive),14.6 µM (inactive),15.2 µM (inactive),14.6 µM (inactive),8.63 µM (inactive),14 µM (inactive),13.7 µM (inactive)
CC(C)(C)OC(=O)NCC(=O)NC1CC=CCC1NC(=O)CNC(=O)OC(C)(C)C (stereo not given),> 100 µM (inactive),> 100 µM (inactive),> 100 µM (inactive),> 100 µM (inactive),> 100 µM (inactive),> 100 µM (inactive),> 100 µM (inactive),> 100 µM (inactive),> 100 µM (inactive),> 100 µM (inactive),> 100 µM (inactive),> 100 µM (inactive),> 100 µM (inactive),> 100 µM (inactive),> 100 µM (inactive),,> 100 µM (inactive),> 100 µM (inactive)
O=S1(=O)C(c2ccccc2)=C(O)c2ccccc21,35.8 µM (inactive),> 100 µM (inactive),> 100 µM (inactive),> 100 µM (inactive),> 100 µM (inactive),> 100 µM (inactive),> 100 µM (inactive),> 100 µM (inactive),> 100 µM (inactive),> 100 µM (inactive),> 100 µM (inactive),> 100 µM (inactive),> 100 µM (inactive),,> 100 µM (inactive),> 100 µM (inactive),> 100 µM (inactive),> 100 µM (inactive)
